These results are taken from paper PMC10319115, “CL-705G: a novel chemical Kir6.2-specific KATP channel opener” (Frontiers in Pharmacology, 2023).

One test deals with T1, Kir3.1/Kir3.4 (Mus musculus, UniProt P48548+P63250).
T1 construct: gene Kcnj3; heterotetramer expressed from cRNA in Xenopus laevis oocytes
T1 sequence (P63250 1-501): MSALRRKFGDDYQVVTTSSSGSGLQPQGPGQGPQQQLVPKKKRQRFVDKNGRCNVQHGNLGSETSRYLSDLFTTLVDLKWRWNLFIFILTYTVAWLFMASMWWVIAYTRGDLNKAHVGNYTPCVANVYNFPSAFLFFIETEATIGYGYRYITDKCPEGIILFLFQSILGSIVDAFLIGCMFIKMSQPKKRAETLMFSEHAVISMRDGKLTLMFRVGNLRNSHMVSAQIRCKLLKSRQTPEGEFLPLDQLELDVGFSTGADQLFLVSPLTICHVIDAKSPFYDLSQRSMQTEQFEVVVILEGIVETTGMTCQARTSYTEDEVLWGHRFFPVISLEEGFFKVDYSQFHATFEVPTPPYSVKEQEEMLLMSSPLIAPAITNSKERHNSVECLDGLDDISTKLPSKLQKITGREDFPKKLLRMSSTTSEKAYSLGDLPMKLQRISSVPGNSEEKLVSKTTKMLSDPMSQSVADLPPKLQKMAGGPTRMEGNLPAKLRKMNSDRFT
T1 sequence (P48548 1-419): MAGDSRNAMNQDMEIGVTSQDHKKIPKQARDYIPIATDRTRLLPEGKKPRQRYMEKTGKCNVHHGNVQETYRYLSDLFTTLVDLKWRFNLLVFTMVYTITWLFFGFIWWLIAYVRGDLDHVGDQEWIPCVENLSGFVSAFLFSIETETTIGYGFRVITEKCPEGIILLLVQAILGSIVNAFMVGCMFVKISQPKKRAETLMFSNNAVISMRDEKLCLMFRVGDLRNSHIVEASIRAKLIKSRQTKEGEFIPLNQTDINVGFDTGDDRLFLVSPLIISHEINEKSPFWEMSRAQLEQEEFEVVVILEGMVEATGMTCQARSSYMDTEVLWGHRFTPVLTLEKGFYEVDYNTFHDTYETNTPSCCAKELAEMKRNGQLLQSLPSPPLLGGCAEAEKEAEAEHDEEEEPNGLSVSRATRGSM
Nature of the test: two-electrode voltage clamp, Xenopus oocytes. The class given is cell-based. To be noted: inhibition; high K+ (96 mM) pH 7.3.

A further test concerns T2, Kir6.2/SUR2A.
T2 construct: gene KCNJ11; hetero-octamer
The experiment in a line: Tl+ flux (FluxOR II), initial rate, HEK-293. The conditions noted are these: opener; 10 min preincubation. The class given is cell-based.

Each structure is given as a SMILES string.

Take `O=C(c1cc(=O)[nH][nH]1)N1CCCC(CCc2ccccc2C(F)(F)F)C1` (centres unmarked) [CL-705G, 5-[(3-{2-[2-(trifluoromethyl)phenyl]ethyl}-1-piperidinyl)carbonyl]-1,2-dihydro-3H-pyrazol-3-one]: the “% reduction of current at 100 μM” value at Kir3.1/Kir3.4 is 17%.

With `CC(NC(=NC#N)Nc1ccncc1)C(C)(C)C` (centres unmarked) [pinacidil], the EC50 in the test on Kir6.2/SUR2A came out at 11 µM.

One may read the EC50 as the midpoint of the concentration-response curve.
